The values that follow come from patent publication US20130072415A1, “DETERGENT COMPOSITIONS COMPRISING […] BLEND RATIOS of ISOPRENOID-BASED SURFACTANTS” (The Procter & Gamble Company, priority 2011, published 2013).

This series is described as follows: Dynamic Interfacial Tension (DIFT) analysis, ascending canola oil drop in aqueous detergent phase. The series is classed as physicochemical. The settings on record: 100 ppm surfactant, 34 ppm Calcium/Magnesium water hardness (3:1), 22° C., pH 8-8.5. The method, then:
The surfactant systems in Table 3 are analyzed via DIFT method. Ingredients listed are in ppm concentration as would be common in a detergent wash water solution. Analysis conditions are in water of 103 ppm Calcium/Magnesium water hardness level (3:1 Calcium:Magnesium), 21° C., pH 8-8.5. • Formula E contains a commercial branched Neodol® 67 AS surfactant. • Formula F contains 90A:10B AS of the present invention substituted for branched Neodol® 67 AS surfactant. • Formulas G and H are common detergent surfactant mixtures containing no branched alkyl sulfate surfactants.
The surfactant systems in Table 5 are analyzed via DIFT method. Ingredients listed are in ppm concentration as would be common in a detergent wash water solution. Analysis conditions are in water of 34 ppm Calcium/Magnesium water hardness level (3:1 Calcium:Magnesium), 22° C., pH 8-8.5.
Method: Dynamic Interfacial Tension Analysis. Dynamic Interfacial Tension (DIFT) analysis is performed on a Krüss® DVT30 Drop Volume Tensiometer (Krüss USA, Charlotte, N.C.). The instrument is configured to measure the interfacial tension (IFT) of an ascending oil drop in aqueous detergent (surfactant) phase. The oil used is canola oil (Crisco Pure Canola Oil manufactured by The J.M. Smucker Company). The aqueous detergent and oil phases are temperature controlled at 22° C. (+/−1° C.), via a recirculating water temperature controller attached to the tensiometer. A dynamic interfacial tension curve is generated by dispensing the oil drops into the aqueous detergent phase from an ascending capillary with an internal diameter of 0.2540 mm, over a range of flow rates and measuring the interfacial tension at each flow rate. Data is generated at oil dispensing flow rates of 500 uL/min to 1 uL/min with 2 flow rates per decade on a logarithmic scale (7 flow rates measured in this instance). Interfacial tension is measured on three oil drops per flow rate and then averaged. Interfacial tension is reported in units of mN/m. Surface age of the oil drops at each flow rate is also recorded and plots can be generated either of interfacial tension (y-axis) versus oil flow rate (x-axis) or interfacial tension (y-axis) versus oil drop surface age (x-axis). […] Example of analysis of a 100 ppm surfactant concentration, with water hardness (3:1 Ca:Mg) of 103 ppm, 22° C., pH 8: Density settings for 22° C. are set at 0.916 g/ml for Canola Oil and 0.998 g/ml for aqueous surfactant phase (assumed to be the same as water since dilute solution). To a 100 ml volumetric flask is added 1.00 mL of 1% (wt/wt) Surfactant solution in deionized water and the volumetric is then filled to the mark with […] 3:1 CaCl2:MgCl2 solution and mixed well. The solution is transferred to a beaker and the pH adjusted to 8 by addition of a few drops of 0.1N NaOH or […]. The solution is then loaded into the tensiometer measurement cell and analyzed. Total time from addition of hardness to surfactant and start of analysis is less than 5 minutes.

SMILES strings stand for the structures.

In the case of `CC(C)CCCC(C)CCCC(C)CCCOS(=O)(=O)[O-].[Na+]` (stereo not drawn) [A AS, sodium salt of 4,8,12-trimethyltridecan-1-ol sulfate], the “IFT @ 1 uL/min Oil Flowrate” value is given as 0.17 mN/m, the “IFT @ 10 uL/min Oil Flowrate” value is 0.88 mN/m and the “IFT @ 99 uL/min Oil Flowrate” value amounted to 4.83 mN/m.

For the compound `CCC(CCCC(C)CCCC(C)C)CCOS(=O)(=O)[O-].[Na+]` (stereo not drawn) [B AS, sodium salt of 3-ethyl-7,11-dimethyldodecan-1-ol sulfate], the “IFT @ 1 uL/min Oil Flowrate” value came to 0.35 mN/m, the “IFT @ 10 uL/min Oil Flowrate” value is 1.6 mN/m and the “IFT @ 99 uL/min Oil Flowrate” value worked out at 6.14 mN/m.
